These molecules were tested against Histone deacetylase 2 (Homo sapiens, UniProt Q92769) (assay: Inhibition of full-length recombinant human C-terminal GST tagged HDAC2 expressed in Sf9 insect cells using aminoluciferin peptide substrate at 100 nM preincubated for 3 hrs followed by substrate addition and measured after 30 mins by HDAC-Glo I/II chemiluminescence assay). Conditions: time 3.5 hrs.
Chain of Histone deacetylase 2 (Q92769 whole entry): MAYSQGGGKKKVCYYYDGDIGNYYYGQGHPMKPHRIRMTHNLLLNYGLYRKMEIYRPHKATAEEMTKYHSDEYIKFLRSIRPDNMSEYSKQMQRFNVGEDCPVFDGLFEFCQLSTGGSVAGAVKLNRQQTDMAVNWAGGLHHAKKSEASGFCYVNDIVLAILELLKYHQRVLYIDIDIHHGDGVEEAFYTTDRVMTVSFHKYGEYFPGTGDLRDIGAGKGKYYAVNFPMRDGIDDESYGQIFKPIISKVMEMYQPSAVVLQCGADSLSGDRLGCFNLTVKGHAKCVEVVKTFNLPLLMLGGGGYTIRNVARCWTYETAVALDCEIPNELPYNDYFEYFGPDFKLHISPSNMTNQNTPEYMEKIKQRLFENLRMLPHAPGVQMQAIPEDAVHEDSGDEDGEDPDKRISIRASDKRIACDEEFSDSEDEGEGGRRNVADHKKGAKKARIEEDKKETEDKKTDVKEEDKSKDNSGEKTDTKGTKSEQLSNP
Molecule `Nc1ccc(-c2cccs2)cc1NC(=O)c1ccc(-c2cn(/C=C/c3ccccc3)nn2)cc1` has an inhibition of 0%. `CCc1ccc(Cn2cc(-c3ccc(C(=O)Nc4cc(-c5cccs5)ccc4N)s3)nn2)cc1` showed an inhibition of 2%. `Nc1ccc(-c2cccnc2)cc1NC(=O)CCc1cn(CCc2ccc(F)cc2)nn1` showed an inhibition of 3%. In the case of `Nc1ccc(-c2ccsc2)cc1NC(=O)CCc1cn(CCc2ccccc2C(F)(F)F)nn1`, the inhibition is reported as 0%. Work on `Nc1ccc(-c2cccs2)cc1NC(=O)c1cccc(-c2cn(-c3ccccc3-c3ccccc3)nn2)c1` yielded an inhibition of 0%. For `Nc1ccc(-c2ccccc2)cc1NC(=O)CCc1cn(CCCc2ccccc2)nn1`, the inhibition was 9%. `COc1ccc(Cn2cc(-c3ccc(C(=O)Nc4cc(-c5cccs5)ccc4N)cc3)nn2)cc1` showed an inhibition of 4%. With `Nc1ccc(-c2ccccc2)cc1NC(=O)c1cn(-c2ccc(Br)cc2)nn1` the inhibition was 0%. `Nc1ccc(-c2ccsc2)cc1NC(=O)CCc1cn(CCc2ccc(F)cc2)nn1` showed an inhibition of 21%. For `COc1ccccc1CCn1cc(-c2ccc(C(=O)Nc3cc(-c4cccs4)ccc3N)cc2)nn1`, the inhibition was 29%. With `Nc1ccc(-c2cccs2)cc1NC(=O)CCc1cn(Cc2ccc3ccccc3n2)nn1` the inhibition was 22%. In the case of `Nc1ccc(-c2cccs2)cc1NC(=O)c1cccc(-c2cn(CC34CC5CC(CC(C5)C3)C4)nn2)c1`, the inhibition is reported as 0%. `Nc1ccc(-c2cccs2)cc1NC(=O)CCc1cn(CCCc2ccccc2)nn1` gave an inhibition of 10%. Molecule `Nc1ccc(-c2cccs2)cc1NC(=O)c1cn(Cc2ccc3ccccc3n2)nn1` has an inhibition of 12%. In the case of `Nc1ccc(-c2ccccc2)cc1NC(=O)c1cn(CCc2ccc(C(=O)O)cc2)nn1`, the inhibition is reported as 9%. `Nc1ccc(-c2cccs2)cc1NC(=O)c1ccc(-c2cn(CC34CC5CC(CC(C5)C3)C4)nn2)cc1` gave an inhibition of 0%. In the case of `Nc1ccc(-c2cccnc2)cc1NC(=O)CCc1cn(CCc2ccc(C(F)(F)F)cc2)nn1`, the inhibition is reported as 0%. Molecule `Nc1ccc(-c2ccsc2)cc1NC(=O)CCc1cn(CCc2c[nH]c3ccccc23)nn1` has an inhibition of 22%. Molecule `CCc1ccc(Cn2cc(-c3ccc(C(=O)Nc4cc(-c5cccs5)ccc4N)cc3)nn2)cc1` has an inhibition of 0%. With `Nc1ccc(-c2ccc(F)cc2)cc1NC(=O)CCc1cn(CCc2ccc(F)cc2)nn1` the inhibition was 17%. For `Nc1ccc(-n2cc(CCC(=O)Nc3cc(-c4ccsc4)ccc3N)nn2)cc1`, the inhibition was 24%. `Nc1ccc(-c2cccs2)cc1NC(=O)CCc1cn(Cc2ccc(C(=O)O)cc2)nn1` gave an inhibition of 31%. `Nc1ccc(-c2ccccc2)cc1NC(=O)CCc1cn(CCc2ccccc2C(F)(F)F)nn1` showed an inhibition of 0%. Work on `Nc1ccc(-c2cccs2)cc1NC(=O)c1cccc(-c2cn(CCc3ccccc3[N+](=O)[O-])nn2)c1` yielded an inhibition of 0%. In the case of `CCc1ccc(Cn2cc(CCC(=O)Nc3cc(-c4ccc(F)cc4)ccc3N)nn2)cc1`, the inhibition is reported as 2%. `Nc1ccc(-c2cccnc2)cc1NC(=O)CCc1cn(Cc2nc3ccccc3[nH]2)nn1` gave an inhibition of 11%. `Nc1ccc(-c2cccnc2)cc1NC(=O)CCc1cn(CCc2cccc(C(F)(F)F)c2)nn1` was tested, and the inhibition was 13%. Work on `Nc1ccc(-c2cccs2)cc1NC(=O)c1cccc(-c2cn(CCCc3ccccc3)nn2)c1` yielded an inhibition of 4%. `Nc1ccc(-c2ccsc2)cc1NC(=O)c1cn(CCc2ccccc2[N+](=O)[O-])nn1` showed an inhibition of 2%. For `COc1ccc(CCn2cc(CCC(=O)Nc3cc(-c4ccccc4)ccc3N)nn2)cc1`, the inhibition was 17%. `Nc1ccc(-c2cccs2)cc1NC(=O)c1cccc(-c2cn(CCc3ccccc3C(F)(F)F)nn2)c1` showed an inhibition of 2%. With `Cc1cccc(C)c1NC(=O)Cn1cc(CCC(=O)Nc2cc(-c3cccnc3)ccc2N)nn1` the inhibition was 11%. `Nc1ccc(-c2cccnc2)cc1NC(=O)CCc1cn(CCCCCCCC(=O)O)nn1` showed an inhibition of 0%. `Nc1ccc(-c2ccc(F)cc2)cc1NC(=O)CCc1cn(CCc2cccc(Cl)c2)nn1` gave an inhibition of 17%. `Nc1ccc(-c2ccc(F)cc2)cc1NC(=O)c1cn(CCCCCCC(=O)O)nn1` was tested, and the inhibition was 23%. `Nc1ccc(-c2ccsc2)cc1NC(=O)c1cn(-c2cccc3ccccc23)nn1` gave an inhibition of 0%. `COc1ccc(CCn2cc(-c3ccc(C(=O)Nc4cc(-c5cccs5)ccc4N)s3)nn2)cc1` was tested, and the inhibition was 30%. In the case of `Nc1ccc(-c2ccsc2)cc1NC(=O)CCc1cn(CCc2ccc3ccccc3n2)nn1`, the inhibition is reported as 20%. With `Nc1ccc(-c2cccs2)cc1NC(=O)c1ccc(-c2cn(-c3ccc(Br)cc3)nn2)cc1` the inhibition was 0%. `Nc1ccc(-c2cccs2)cc1NC(=O)c1cn(CCC2CCCCC2)nn1` was tested, and the inhibition was 3%. For `Nc1ccc(-c2cccs2)cc1NC(=O)c1cn(-c2ccc(Br)cc2)nn1`, the inhibition was 0%. `CCc1ccc(Cn2cc(CCC(=O)Nc3cc(-c4ccsc4)ccc3N)nn2)cc1` showed an inhibition of 6%. Molecule `Cc1ccc(-n2cc(-c3cccc(C(=O)Nc4cc(-c5cccs5)ccc4N)c3)nn2)cc1C` has an inhibition of 5%. `Cc1cccc(C)c1NC(=O)Cn1cc(CCC(=O)Nc2cc(-c3ccc(F)cc3)ccc2N)nn1` showed an inhibition of 18%. `Nc1ccc(-c2cccs2)cc1NC(=O)CCc1cn(CCc2cccc(C(F)(F)F)c2)nn1` gave an inhibition of 3%. Work on `Nc1ccc(-c2cccs2)cc1NC(=O)c1cccc(-c2cn(CCc3ccsc3)nn2)c1` yielded an inhibition of 0%. In the case of `COc1ccc(CCn2cc(CCC(=O)Nc3cc(-c4cccs4)ccc3N)nn2)cc1`, the inhibition is reported as 21%. With `Nc1ccc(-c2ccsc2)cc1NC(=O)c1cn(CC2CCCCC2)nn1` the inhibition was 0%. `Nc1ccc(-c2cccs2)cc1NC(=O)c1ccc(-c2cn(Cc3nc4ccccc4[nH]3)nn2)s1` gave an inhibition of 63%. `Nc1ccc(-c2cccs2)cc1NC(=O)c1cccc(-c2cn(Cc3nc4ccccc4[nH]3)nn2)c1` was tested, and the inhibition was 32%. For `Nc1ccc(-c2ccsc2)cc1NC(=O)CCc1cn(CCc2ccc([N+](=O)[O-])cc2)nn1`, the inhibition was 20%. In the case of `Nc1ccc(-c2ccc(F)cc2)cc1NC(=O)c1cn(CCc2cccc3ccccc23)nn1`, the inhibition is reported as 0%. In the case of `Nc1ccc(-c2cccs2)cc1NC(=O)CCc1cn(Cc2cccc(C(=O)O)c2)nn1`, the inhibition is reported as 3%. Molecule `Nc1ccc(-c2ccccc2)cc1NC(=O)c1cn(CCc2cccc(Cl)c2)nn1` has an inhibition of 0%. With `Nc1ccc(-c2ccccc2)cc1NC(=O)c1cn(CCc2ccccc2)nn1` the inhibition was 12%. `Nc1ccc(-c2ccccc2)cc1NC(=O)CCc1cn(Cc2ccc3ccccc3n2)nn1` gave an inhibition of 18%. With `Nc1ccc(-c2cccs2)cc1NC(=O)c1cccc(-c2cn(Cc3cccc4ccccc34)nn2)c1` the inhibition was 14%. `Nc1ccc(-c2cccs2)cc1NC(=O)CCc1cn(CC(=O)Nc2ccc(F)cc2)nn1` was tested, and the inhibition was 30%. In the case of `Nc1ccc(-c2cccs2)cc1NC(=O)c1ccc(-c2cn(CCc3cccc([N+](=O)[O-])c3)nn2)s1`, the inhibition is reported as 23%. Molecule `Nc1ccc(-c2ccsc2)cc1NC(=O)c1cn(CCc2ccc(C(F)(F)F)cc2)nn1` has an inhibition of 0%. `Cc1csc(CCn2cc(C(=O)Nc3cc(-c4cccs4)ccc3N)nn2)n1` showed an inhibition of 15%. `Nc1ccc(-c2cccnc2)cc1NC(=O)CCc1cn(CCc2ccccc2C(F)(F)F)nn1` showed an inhibition of 0%. Work on `Nc1ccc(-c2ccccc2)cc1NC(=O)c1cn(-c2cccc3ccccc23)nn1` yielded an inhibition of 0%. `Nc1ccc(-c2cccnc2)cc1NC(=O)CCc1cn(Cc2ccc3ccccc3n2)nn1` showed an inhibition of 3%. Molecule `Nc1ccc(-c2cccs2)cc1NC(=O)c1cn(CCc2c[nH]c3ccccc23)nn1` has an inhibition of 14%. `Cc1ccc(-n2cc(-c3ccc(C(=O)Nc4cc(-c5cccs5)ccc4N)cc3)nn2)cc1C` was tested, and the inhibition was 0%. In the case of `Nc1ccc(-c2cccs2)cc1NC(=O)c1ccc(-c2cn(CCc3cccc(C(F)(F)F)c3)nn2)s1`, the inhibition is reported as 0%. With `Nc1ccc(-c2cccs2)cc1NC(=O)c1ccc(-c2cn(CCCCCc3ccccc3)nn2)s1` the inhibition was 1%. For `Cc1cccc(CCn2cc(-c3ccc(C(=O)Nc4cc(-c5cccs5)ccc4N)s3)nn2)c1`, the inhibition was 20%. `Nc1ccc(-c2ccsc2)cc1NC(=O)CCc1cn(CCc2cccc3ccccc23)nn1` was tested, and the inhibition was 0%. `Nc1ccc(-c2cccs2)cc1NC(=O)c1ccc(-c2cn(CCc3ccccc3Cl)nn2)s1` showed an inhibition of 5%. In the case of `Nc1ccc(-c2cccs2)cc1NC(=O)CCc1cn(CCc2ccc(F)cc2)nn1`, the inhibition is reported as 11%. Molecule `Nc1ccc(-c2ccc(F)cc2)cc1NC(=O)c1cn(CCc2ccc(C(=O)O)cc2)nn1` has an inhibition of 31%. Molecule `Nc1ccc(-c2ccc(F)cc2)cc1NC(=O)CCc1cn(Cc2ccc(-c3ccccc3)cc2)nn1` has an inhibition of 0%. Molecule `Cc1csc(CCn2cc(C(=O)Nc3cc(-c4ccsc4)ccc3N)nn2)n1` has an inhibition of 12%. `Nc1ccc(-c2cccs2)cc1NC(=O)c1ccc(-c2cn(-c3ccc([N+](=O)[O-])cc3)nn2)cc1` showed an inhibition of 4%. `Nc1ccc(-c2cccnc2)cc1NC(=O)CCc1cn(-c2ccc(Br)cc2)nn1` showed an inhibition of 2%. With `COc1ccc(-n2cc(CCC(=O)Nc3cc(-c4cccnc4)ccc3N)nn2)cc1` the inhibition was 9%. With `Nc1ccc(-c2cccs2)cc1NC(=O)c1cn(CCC2CCCC2)nn1` the inhibition was 0%. `CCc1ccc(Cn2cc(C(=O)Nc3cc(-c4ccccc4)ccc3N)nn2)cc1` gave an inhibition of 0%. Work on `Cc1cccc(CCn2cc(C(=O)Nc3cc(-c4cccs4)ccc3N)nn2)c1` yielded an inhibition of 11%. `Nc1ccc(-c2cccnc2)cc1NC(=O)CCc1cn(CCc2ccccc2[N+](=O)[O-])nn1` was tested, and the inhibition was 1%. `Nc1ccc(-c2cccs2)cc1NC(=O)c1ccc(-c2cn(Cc3ccc(C(=O)O)cc3)nn2)cc1` showed an inhibition of 42%. In the case of `Nc1ccc(-c2cccs2)cc1NC(=O)c1cn(CCc2ccc(F)cc2)nn1`, the inhibition is reported as 0%. In the case of `Nc1ccc(-c2ccc(F)cc2)cc1NC(=O)CCc1cn(CCC2CCCCC2)nn1`, the inhibition is reported as 2%. `Nc1ccc(-c2cccs2)cc1NC(=O)c1ccc(-c2cn(CCCCCC(=O)O)nn2)s1` gave an inhibition of 54%. Work on `Nc1ccc(-c2ccc(F)cc2)cc1NC(=O)CCc1cn(CCc2cccc3ccccc23)nn1` yielded an inhibition of 0%. For `Nc1ccc(-c2cccs2)cc1NC(=O)c1ccc(-c2cn(CCc3ccc(C(=O)O)cc3)nn2)cc1`, the inhibition was 46%. For `Nc1ccc(-c2cccs2)cc1NC(=O)c1ccc(-c2cn(CCN3CCOCC3)nn2)s1`, the inhibition was 69%. With `Nc1ccc(-c2ccccc2)cc1NC(=O)CCc1cn(-c2ccccc2-c2ccccc2)nn1` the inhibition was 2%. Work on `Nc1ccc(-c2ccccc2)cc1NC(=O)CCc1cn(CCC23CC4CC(CC(C4)C2)C3)nn1` yielded an inhibition of 0%. In the case of `CCc1ccc(Cn2cc(CCC(=O)Nc3cc(-c4cccs4)ccc3N)nn2)cc1`, the inhibition is reported as 10%. `COc1ccc(CCn2cc(CCC(=O)Nc3cc(-c4ccc(F)cc4)ccc3N)nn2)cc1` gave an inhibition of 34%.

— ChEMBL document CHEMBL5390237, “Discovery of Selective Histone Deacetylase 1 and 2 Inhibitors: Screening of a Focused Library Constructed by Click Chemistry, Kinetic Binding Analysis, and Biological Evaluation” (J Med Chem, 2023)
